Among the data in patent US3974140A, “Ureidoacetamido-penicillins” (Bayer Aktiengesellschaft, priority 1970, dated 1976) are MIC values, retold here.

Common to all, as to experiment: MIC, liquid medium test tube series dilution test
In one assay the test system is Staph. aureus 1777 E. The class given is cell-based, Staphylococcus aureus. Conditions: 24 hours, 37°C. The method in brief: (§1)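 Values are minimum inhibitory concentrations in units/ml, taken as the first clear (non-turbid) tube of a dilution series. Tubes of complete liquid medium were incubated 24 h at 37°C.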
For a further assay, the system named is Psdm. aerug. Bonn. The class given is cell-based, Pseudomonas aerug. The note with it: 24 hours, 37°C. The method in brief:
as §1

The test system of the next assay is Psdm. aerug. Walter. The class given is cell-based, Pseudomonas aerug. Conditions: 24 hours, 37°C. The method in brief: as §1
Another assay deals with E. coli 14. Type of assay: cell-based. The note with it: E. coli 14, 24 hours, 37°C. The gist of the method:
as §1

Assay [1] concerns Streptoc. faec. ATCC 9790. The class given is cell-based. The note with it: Strep. faec. (Enterococcus) ATCC 9790, 24 hours, 37°C. The method in brief:
as §1

A further assay relates to Klebsiella 63. The class given is cell-based. The note with it: Klebsiella 63, 24 hours, 37°C. The method in brief: as §1
The subject of a further assay is Klebsiella K 10. The class given is cell-based. The note with it: Klebsiella K 10, 24 hours, 37°C. The method in brief:
as §1

For a further assay, the system named is E. coli C 165. Type of assay: cell-based. The note with it: E. coli C 165, 24 hours, 37°C. The gist of the method: as §1
For the next assay, the system named is E. coli 183/58. The class given is cell-based. Conditions: E. coli 183/58, 24 hours, 37°C. The method in brief: as §1
The next assay concerns E. coli A 261. Type of assay: cell-based. The note with it: E. coli A 261, 24 hours, 37°C. The method in brief: as §1
The next assay has as its system Proteus vulg. 1017. The class given is cell-based, Proteus vulgaris. Conditions: Proteus vulg. 1017, 24 hours, 37°C. The gist of the method: as §1
The next assay concerns Proteus vulg. 3400. The class given is cell-based, Proteus vulgaris. Conditions: Proteus vulg. 3400, 24 hours, 37°C. The gist of the method:
as §1

The subject of another assay is Staph. aureus 133. The class given is cell-based, Staphylococcus aureus. Conditions: Staph. aureus 133, 24 hours, 37°C. The gist of the method: as §1

In the case of `C=CCN(C(=O)N[C@@H](C(=O)N[C@@H]1C(=O)N2[C@@H]1SC(C)(C)[C@@H]2C(=O)O)c1ccccc1)C(=O)c1ccccc1` [Example 90, Sodium D(-)-α-(3-benzoyl-3-allyl-ureido)-benzylpenicillin], the MIC against Staph. aureus 1777 E amounted to 50 units/ml; in the assay with Psdm. aerug. Bonn it was 25 units/ml; in the assay with Psdm. aerug. Walter, 50 units/ml; against E. coli 14, 6.25 units/ml; in assay [1], 100 units/ml; in the assay on Klebsiella 63, 25 units/ml. The MIC in the assay on Klebsiella K 10 amounted to 50 units/ml; with E. coli C 165, 12.5 units/ml; with E. coli 183/58, 12.5 units/ml; in the assay with E. coli A 261, 400 units/ml; against Proteus vulg. 1017 it was 12.5 units/ml; with Proteus vulg. 3400, 25 units/ml.

Consider `Cc1ccc(C(NC(=O)N2CCNC2=O)C(=O)N[C@@H]2C(=O)N3[C@@H]2SC(C)(C)[C@@H]3C(=O)O)cc1` (stereo partly drawn) [Example 45, Sodium α-[(imidazolidin-2-on-1-yl)-carbonylamino]-p-methylbenzylpenicillin], for which the MIC against Staph. aureus 133 is listed as < 0,78 units/ml; in the assay on Staph. aureus 1777 E, 400 units/ml; in the assay with Psdm. aerug. Bonn, 25 units/ml; with Psdm. aerug. Walter, 12,5 units/ml; in the assay with E. coli 14 it was 6,25 units/ml; in assay [1], 50 units/ml. Also, the MIC is listed as 100 units/ml in the assay on Klebsiella 63; 100 units/ml in the assay with Klebsiella K 10; 25 units/ml against E. coli C 165; 6,25 units/ml against E. coli 183/58; more than 400 units/ml in the assay on E. coli A 261; 100 units/ml in the assay with Proteus vulg. 1017. Besides, the MIC with Proteus vulg. 3400 is 100 units/ml.

As to `CC(=O)N(C)C(=O)NC(C(=O)N[C@@H]1C(=O)N2[C@@H]1SC(C)(C)[C@@H]2C(=O)O)c1ccc(Cl)cc1` (stereo partly drawn) [Example 121, Sodium R,S-α-(3-acetyl-3-methyl-ureido)-4-chlorobenzylpenicillin], the MIC was less than 0.8 units/ml in the assay on Staph. aureus 133; 100 units/ml in the assay on Staph. aureus 1777 E; 100 units/ml against Psdm. aerug. Bonn; 100 units/ml in the assay with Psdm. aerug. Walter; 6 units/ml against E. coli 14; 100 units/ml in [1]. Besides, the MIC against Klebsiella 63 is 100 units/ml; against Klebsiella K 10, 25 units/ml; in the assay on E. coli C 165, 50 units/ml; in the assay on E. coli 183/58, 100 units/ml; against E. coli A 261 it was more than 400 units/ml; in the assay on Proteus vulg. 1017, 100 units/ml. In the assay on Proteus vulg. 3400, the MIC amounted to 200 units/ml.

Take `CSc1ccc(C(NC(=O)N2CCNC2=O)C(=O)N[C@@H]2C(=O)N3[C@@H]2SC(C)(C)[C@@H]3C(=O)O)cc1` (stereo partly drawn) [Example 54, Sodium α-[(imidazolidin-2-on-1-yl)-carbonylamino]-4-methylthiobenzylpenicillin]: the MIC in the assay on Staph. aureus 133 is given as < 0,78 units/ml; against Staph. aureus 1777 E it was 200 units/ml; against Psdm. aerug. Bonn it was 12,5 units/ml; against Psdm. aerug. Walter, 25 units/ml; against E. coli 14, 6,25 units/ml; in [1], 50 units/ml. The MIC is reported as 100 units/ml in the assay with Klebsiella 63; 100 units/ml in the assay on Klebsiella K 10; 25 units/ml in the assay on E. coli C 165; 6,25 units/ml in the assay with E. coli 183/58; more than 400 units/ml in the assay on E. coli A 261; 200 units/ml against Proteus vulg. 1017. The MIC in the assay on Proteus vulg. 3400 is listed as 100 units/ml.

With `Cc1ccc(C(NC(=O)N(C)C(=O)N(C)C)C(=O)N[C@@H]2C(=O)N3[C@@H]2SC(C)(C)[C@@H]3C(=O)O)cc1` (stereo partly drawn) [Example 119, Sodium R,S-α-(3-dimethylaminocarbonyl-3-methyl-ureido)-4-methylbenzylpenicillin], the MIC with Staph. aureus 133 is recorded as 1.6 units/ml; against Staph. aureus 1777 E, 200 units/ml; against Psdm. aerug. Bonn, more than 400 units/ml; in the assay on Psdm. aerug. Walter, more than 400 units/ml; with E. coli 14, 25 units/ml; in assay [1], 100 units/ml. The MIC in the assay with Klebsiella 63 is more than 400 units/ml; with Klebsiella K 10 it was 400 units/ml; in the assay with E. coli C 165, 200 units/ml; in the assay on E. coli 183/58 it was 400 units/ml; in the assay on E. coli A 261, more than 400 units/ml; with Proteus vulg. 1017, more than 400 units/ml. For the same compound, the MIC in the assay with Proteus vulg. 3400 is given as more than 400 units/ml.

`CN(C(=O)N[C@@H](C(=O)N[C@@H]1C(=O)N2[C@@H]1SC(C)(C)[C@@H]2C(=O)O)c1ccccc1)C(=O)N1CCCC1` [Example 124, Sodium D(-)-α-(3-[1-pyrrolidyl]-carbonyl-3-methyl-ureido)-benzylpenicillin]: the MIC against Staph. aureus 133 is reported as less than 0.78 units/ml; with Staph. aureus 1777 E it was 25 units/ml; against Psdm. aerug. Bonn it was 50 units/ml; in the assay on Psdm. aerug. Walter, 100 units/ml; against E. coli 14, 3.12 units/ml; in assay [1] it was 200 units/ml. Moreover, the MIC against Klebsiella 63 is 50 units/ml; against Klebsiella K 10 it was 50 units/ml; in the assay with E. coli C 165, 12.5 units/ml; in the assay with E. coli 183/58, 25 units/ml; against E. coli A 261 it was more than 400 units/ml; against Proteus vulg. 1017 it was 50 units/ml. Further, the MIC in the assay with Proteus vulg. 3400 is 50 units/ml.

For `CCCN(C(C)=O)C(=O)N[C@@H](C(=O)N[C@@H]1C(=O)N2[C@@H]1SC(C)(C)[C@@H]2C(=O)O)c1ccccc1` [Example 115, Sodium D(-)-α-(3-acetyl-3-n-propyl-ureido)-benzylpenicillin], the MIC against Staph. aureus 133 is listed as 0.8 units/ml; against Staph. aureus 1777 E, 100-500 units/ml; in the assay with Psdm. aerug. Walter it was 20-100 units/ml; against Klebsiella 63 it was 100-500 units/ml; against E. coli C 165, 20-100 units/ml; against Proteus vulg. 1017 it was 20-100 units/ml.

Turning to `CCC(=O)N(C)C(=O)N[C@@H](C(=O)N[C@@H]1C(=O)N2[C@@H]1SC(C)(C)[C@@H]2C(=O)O)c1ccccc1` [Example 113, Sodium D(-)-α-(3-propionyl-3-methyl-ureido)-benzylpenicillin], the MIC is reported as 0.8 units/ml against Staph. aureus 133; 100-500 units/ml in the assay with Staph. aureus 1777 E; 4-20 units/ml against Psdm. aerug. Walter; 100-500 units/ml with Klebsiella 63; 0.8-4 units/ml in the assay on E. coli C 165; 4-20 units/ml against Proteus vulg. 1017.

For the compound `CC(C)C(=O)N(C)C(=O)N[C@@H](C(=O)N[C@@H]1C(=O)N2[C@@H]1SC(C)(C)[C@@H]2C(=O)O)c1ccccc1` [Example 116, Sodium D(-)-α-(3-i-butyryl-3-methyl-ureido)-benzylpenicillin], the MIC is listed as 0.8 units/ml against Staph. aureus 133; 100-500 units/ml in the assay with Staph. aureus 1777 E; approximately 20 units/ml with Psdm. aerug. Walter; 20-100 units/ml in the assay with Klebsiella 63; 4-20 units/ml against E. coli C 165; 4-20 units/ml against Proteus vulg. 1017.

With `CC1(C)S[C@@H]2[C@H](NC(=O)[C@H](NC(=O)N3CCNC3=O)c3ccccc3)C(=O)N2[C@H]1C(=O)O` [Example 52, D(-)-α-[(Imidazolidin-2-on-1-yl)-carbonylamino]-benzylpenicillin], the MIC is listed as < 0,78 units/ml with Staph. aureus 133; 200 units/ml against Staph. aureus 1777 E; 12,5 units/ml with Psdm. aerug. Bonn; 12,5 units/ml with Psdm. aerug. Walter; 3,12 units/ml in the assay with E. coli 14; 100 units/ml in the assay with Klebsiella K 10. Also, the MIC in the assay with E. coli C 165 was 12,5 units/ml; with E. coli 183/58 it was 6,25 units/ml; in the assay on E. coli A 261 it was more than 400 units/ml.

As for `CCN(C(C)=O)C(=O)N[C@@H](C(=O)N[C@@H]1C(=O)N2[C@@H]1SC(C)(C)[C@@H]2C(=O)O)c1ccccc1` [Example 114, Sodium D(-)-α-(3-acetyl-3-ethyl-ureido)-benzylpenicillin], the MIC is on record as 0.8 units/ml against Staph. aureus 133; 100-500 units/ml in the assay on Staph. aureus 1777 E; 4-20 units/ml with Psdm. aerug. Walter; 100-500 units/ml in the assay with Klebsiella 63; 4-20 units/ml in the assay on E. coli C 165; 20-100 units/ml with Proteus vulg. 1017.

With `CCCCCCCCCCCCCCCCN(C(C)=O)C(=O)N[C@@H](C(=O)N[C@@H]1C(=O)N2[C@@H]1SC(C)(C)[C@@H]2C(=O)O)c1ccccc1` [Example 74, Sodium D(-)-α-(3-acetyl-3-hexadecyl-ureido)-benzylpenicillin], the MIC is recorded as 25 units/ml against Staph. aureus 133; more than 400 units/ml in the assay on Psdm. aerug. Bonn; more than 400 units/ml against Psdm. aerug. Walter; 100 units/ml with E. coli 14; more than 400 units/ml in assay [1]; more than 400 units/ml against Klebsiella 63. Besides, the MIC against Klebsiella K 10, against E. coli C 165, in the assay on E. coli 183/58, against E. coli A 261, with Proteus vulg. 1017 and in the assay with Proteus vulg. 3400 was more than 400 units/ml each time.
